Data on 1 compound can be found in BindingDB's records for patent US9701669 (Merck Sharp & Dohme Corp, 2017).

The target in the assay is T1, Proteinase-activated receptor 1 (Homo sapiens, UniProt P25116).
T1 sequence (P25116 whole entry): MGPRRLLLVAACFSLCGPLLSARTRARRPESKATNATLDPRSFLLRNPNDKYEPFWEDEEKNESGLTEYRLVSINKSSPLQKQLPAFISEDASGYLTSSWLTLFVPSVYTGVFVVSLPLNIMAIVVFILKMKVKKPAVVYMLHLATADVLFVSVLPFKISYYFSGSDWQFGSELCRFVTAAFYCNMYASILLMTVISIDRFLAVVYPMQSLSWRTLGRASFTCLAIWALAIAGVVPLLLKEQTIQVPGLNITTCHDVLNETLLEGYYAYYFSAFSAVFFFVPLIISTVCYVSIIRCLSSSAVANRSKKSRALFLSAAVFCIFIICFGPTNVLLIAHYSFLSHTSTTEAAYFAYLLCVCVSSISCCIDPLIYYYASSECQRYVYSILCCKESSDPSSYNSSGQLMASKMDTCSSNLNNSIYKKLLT
Briefly: PAR-1 FLIPR Assay. The protocol: Media was then removed from the cells, incubated with 33 ul of Calcium-5 dye in assay buffer (Hank's buffer containing 20 mM HEPES, 0.04% Chaps and 2.5 mM Probenecid) for 60 minutes at 37° C. 2 uL of varying concentrations of compound in 40% DMSO in assay buffer (final DMSO concentration is 2.3%) were then added to the cells and incubated at 25° C. for 30 minutes. […] The range of peptide was from 1.5-3 μM. The final volume was 40 uL/well, with 2% DMSO. […] The data were analyzed by taking the peak signal over a portion of the range of the 60 scans and dividing this signal by the minimum signal for that same range.

As a reminder, the IC50 is the concentration at which inhibition is half-maximal. Lower therefore signals greater potency.

`Cc1nc(/C=C/[C@@H]2[C@@H]3[C@@H](C)OC(=O)[C@]3(C(N)=O)CC(F)(F)[C@H]2C)ccc1-c1ccccc1C#N` [US9701669, 4] returned a concentration for half-maximal inhibition (IC50) of 6.92 nM.
